Test results taken from patent US20160186067A1, “METHODS AND SYSTEMS FOR […]” (SHELL OIL COMPANY, priority 2014, published 2016).

Assay: Partitioning of reaction intermediates and solvents between upper toluene-rich and lower aqueous phases (toluene extraction)
Settings: for Kow UL/LL (partition coefficients for toluene extraction): upper toluene-rich layer / lower aqueous-rich layer, toluene added to reactor product of wood digestion, stirred at 150° C. for 2 hours, then cooled and decanted; for Phase preference in toluene extraction: upper organic vs lower aqueous phase, Example 2
Experimental: The injector temperature was set at 250° C., and the detector temperature was set at 300° C. A range of alkanes, ketone and aldehyde monooxygenates as well as residual glycol intermediates including ethylene glycol (EG), 1,2-propylene glycol (PG) and glycerol were observed, along with phenolic components from the initial charge of solvent, and those formed in reaction.
Reaction cycles entailed 1 hour at 160° C., followed by 1 hour at 190° C., followed by 3 hours at 240° C. Six cycles of wood addition were effected, followed by heating overnight at 270° C. under 52 bar of H2 to complete the conversion of intermediates.
Stirring was then stopped, and the reactor was allowed to cool. […] Catalyst was left on the reactor bottom.

Compound | Kow UL/LL (partition coefficients for toluene extraction) | Phase preference in toluene extraction
OCCO [EG, ethylene glycol] | 0.42 | –
CCCc1ccc(O)c(OC)c1 [MPP, 2-methoxy-4-propylphenol] | 33.59 | highly favored the upper organic-rich phase
CC(O)CO (stereo not drawn) [PG, 1,2-propylene glycol] | 5.09 | –
Cc1cccc(C)c1O [xylenol, 2,6-xylenol] | 51.79 | highly favored the upper organic-rich phase
